“And” between values parts separate entries of the source, which are not always exact repeats. Equal entries are not always repeated.

The source of these data is EP0526502B1, “PHENOLIC AMINE DEPIGMENTING AND ANTIMELANOMA AGENTS” (The Governors of the University of Alberta, priority 1990, dated 1991).

For one data set, the system named is follicular melanocytes. As to the kind of experiment: Depigmentation of new hair after plucking (PTCA/eumelanin content of hair follicles). Format: in vivo, C57BL/6J black mice. The note with it: for Depigmentation / PTCA Content: hair harvested day 22. As for the experimental part:
Breeding pairs of C57BL/6J black mice were purchased from Jackson Laboratory, Bar Harbor, Maine. Female progeny were used in this testing when approximately 8 weeks old and weighing 17 grams.
Black hairs were plucked manually from the back of the mice to initiate new anagen growth and activate follicular melanocytes with increased tyrosinase activity. Thirty mice were randomized into 6 groups of 5 (1 control and 1 for each compound). Starting on day 1, daily for 14 days the agent was injected i.p. or was infiltrated s.c. in an area where hair follicles had been plucked; the dose was 300 mg/kg body weight.
In the same 30 mice, hair follicles were harvested on day 22 (early telogen phase) and their eumelanin content analyzed. Details of the assay, including chemical degration of melanin and high-performance liquid chromatography (HPLC) were as described in Ito et al, "Quantitative Analysis of Eumelanin and Pheomelanin in Hair and Melanosomes" J. Invest. Dermatol 80:268-272, 1983. Briefly, a 10-mg hair sample is homogenized in water at a concentration of 10 mg/ml; the 200-»l homogenate is transferred to a screw-capped test tube, mixed with 1M H₂SO₄ (800 »L) and oxidized with 3% KMnO₄. The product, pyrrole-2,3,5-tricarboxylic acid (PTCA), is analyzed by HPLC with a UVL detector; samples are measured in duplicate. The eumelanin content is expressed as PTCA (ng/mg) against the PCTA content of BALB/c albino mice as control (≦ 10 ng/mg, the background value with our method, in which 1 ng corresponds roughly to a eumelanin content of 50 ng), and the degree of depigmentation is expressed as a percentage: (PTCA content of control sampleminusPTCA content of experimental sample)/(PCTA content of control sample) x 100 [formula] .

For data set [1] the following is noted: acute toxicity evaluated from 100 to 1600 mg/Kg; Miura et al; cited from earlier work.
The nature of data set [2]: Acute toxicity / lethal dose and maximum tolerable dose. The note with it: mouse, in vivo. As for the experimental part:
3:1-85 1972. In accordance with this Protocol, ten to fifteen mice were used in each test group. They were weighed and randomized at day one after s.c. inoculation of B16 melanoma cells. From day five, the phenolic melanin precursors were administered i.p. daily for nine days. The test compounds were dissolved in normal saline, and sterilized by heating to 100°C for 2 minutes. […] They were administered i.p. with the following doses: 400 mg/Kg - 4-S-CAP; 200 to 300 mg/Kg - 4-S-CAP; and 200 to 1200 mg/Kg - N-Ac-4-S-CAP. A catalytic amount of L-dopa, 25 mg/Kg and antidecarboxylase, carbidopa, 400 mg/Kg, were also administered. Carbidopa was given one hour prior to L-dopa administration. DTIC (NSC 4538) was used as a control drug at a dose of 60 mg/Kg. Acute toxicity of 4-S-CP and 4-S-CAP was evaluated from 100 to 1600 mg/Kg.
The B16 mouse melanoma was maintained by s.c. inoculation of tumour cells into the back of C57BL7J mice (5 to 6 weeks, female). […] Briefly, excised tumours were homogenized in normal saline. The homogenized tumour cells were then passed through a sterile 80 mesh stainless steel screen, washed with normal saline, centrifuged (500 g. for 10 minutes) and resuspended in normal saline. Suspensions of viable melanoma cells at the concentration of 1 x 10⁶ per 0.1 ml were inoculated s.c. into both the right and left inguinal areas of C57BL/6J mice (female, 5 to 6 weeks old, 18 to 20 gm).

The test system of a further data set is melanocytes. Kind of data set: Light and electron microscopy of melanocytes in regrowing hair follicles. Format: in vivo, mice. The settings on record: for electron microscopy of hair follicles: melanocytes and melanosomes: i.p. injection for 10 days. The protocol:
In six groups of 4 mice (1 control and 1 for each compound) were treated daily with the control or compound injected i.p. The compounds tested were 4-S-CAP, N-Ac-4-S-CAP and α-Me-4-S-CAP. Samples of skin and regrowing hair follicles were excised under brief general anaesthesia on day 10 (late anagen phase), fixed in Karnovsky's solution (2.5% glutaraldehyde and 2.5% paraformaldehyde in 0l1 M cacodylate buffer), and refixed in 1% osmium tetroxide in cadodylate buffer. Tissues were stained en bloc with 1.5% uranyl acetate in o.1 M veronal buffer for 30min, dehydrated in graded ethanol solutions, embedded in epoxy resin, and sectioned with a Potter-Blum ultramicrotome MT II. Sections 1.0 »m thick were stained with methylene blue for light microscopy, thin sections were stained with led citrate for electron microscopy.

The target in the next data set is T1, plasma MAO (Bos taurus, UniProt Q29437).
T1 construct: purchased Sigma Chemical Co. (St. Louis, MO, USA)
T1 sequence (Q29437 17-762): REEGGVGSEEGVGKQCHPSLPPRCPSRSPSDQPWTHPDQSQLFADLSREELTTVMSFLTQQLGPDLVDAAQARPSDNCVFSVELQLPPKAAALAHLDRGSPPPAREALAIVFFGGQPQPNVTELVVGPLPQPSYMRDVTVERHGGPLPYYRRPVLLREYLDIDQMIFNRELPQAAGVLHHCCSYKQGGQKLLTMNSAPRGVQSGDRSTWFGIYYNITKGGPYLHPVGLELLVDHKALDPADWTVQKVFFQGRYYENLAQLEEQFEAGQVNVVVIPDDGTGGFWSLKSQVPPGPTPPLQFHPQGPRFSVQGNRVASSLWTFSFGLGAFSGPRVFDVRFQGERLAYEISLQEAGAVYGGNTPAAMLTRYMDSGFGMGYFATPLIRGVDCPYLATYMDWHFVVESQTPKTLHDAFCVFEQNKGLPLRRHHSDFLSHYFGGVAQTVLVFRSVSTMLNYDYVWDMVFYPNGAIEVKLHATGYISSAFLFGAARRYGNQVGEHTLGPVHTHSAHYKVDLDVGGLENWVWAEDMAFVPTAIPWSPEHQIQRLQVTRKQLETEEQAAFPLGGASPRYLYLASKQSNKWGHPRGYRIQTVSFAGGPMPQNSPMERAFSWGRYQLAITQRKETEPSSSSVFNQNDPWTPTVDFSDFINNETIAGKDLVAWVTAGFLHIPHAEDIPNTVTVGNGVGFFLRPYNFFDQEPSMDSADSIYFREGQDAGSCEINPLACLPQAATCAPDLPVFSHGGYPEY
Kind of data set: Enzyme kinetics with monoamineoxidase (substrate disappearance by HPLC, Lineweaver-Burk). Format: biochemical. The note with it: result in words. As for the experimental part:
(§1) Mushroom tyrosinase (400 units/mg) and plasma MAO (1000 units/gm) were obtained from Sigma Chemical Co. (St. Louis, MO, USA). A reaction mixture consisted of a substrate of 7 to 8 different concentrations (40 to 500 »M for mushroom tyrosinase and 20 to 200 »M for MAO) and of either mushroom tyrosinase (2.5 »g) or MAO (10 »g) in 1.0 mL of 0.05 M sodium phosphate buffer, pH 6.8 and 7.4 respectively. The reactions were carried out at 37°C in a shaking water bath, and stopped by taking 100 »L of the reaction mixture and adding it to 900 »L of 0.4 M HCLO₄. The disappearance of substrate was followed using HPLC (high pressure liquid chromatography) Km and Vmax values were calculated from the Lineweaver-Burk plots.

The next data set has as its system B16 melanoma. Kind of data set: In vivo growth inhibition of s.c. inoculated B16 melanoma. Details: species or system C57BL/6J mice. The settings on record: 200 mg/Kg i.p. daily for nine days, day 12 or 13. The protocol:
The in vivo antimelanoma effect of the compounds were evaluated by percent growth inhibition of inoculated tumour (%g.i.). The percent g.i. was computed from the mean tumour volume at day 12 or 13 of the experiments; i.e., 100 x (1- treated group/control group). […] To further examine whether a minimal dose of N-Ac-4-S-CAP, 200 mg/Kg has an antimelanoma effect, three groups of mice were treated with N-Ac-4-S-CAP. […] One of the advantages of N-Ac-4-S-CAP over 4-S-CAP was that it had much higher LD⁵⁰ (as high as 1400 mg/Kg of body weight, and therefore a greater range of safety).

Another data set has as its system B16F10 melanoma. As to the kind of experiment: Melanoma-colony formation in the lungs. Type of data set: in vivo, mice. The settings on record: 300 mg/kg i.p. daily for 14 days from day five; lungs excised day 26. The protocol:
Murine B16F10 melanoma cell line with a strong metastatic property to form tumour colonies in the lungs was obtained from Dr. Longenecker, Department of Immunology, University of Alberta. Such cell line is well recognized and readily available as reported in Miura et al, supra. The cells were grown in T-75 flasks in dulbecco's MEM available from Gipco Lab Inc., Grand Island, New York, supplemented with 10% fetal calf serum, also obtained from Gipco, penicillin (100 »/ml) and streptomycin (100 »g/ml). The cells were incubated at 37°C in humidified atmosphere of 5% CO₂ in air. The cells were harvested by applying a thin layer of 0.25% trypsin solution in EDTA, washed and resuspended in cold N saline solution. Viable cells were identified by trypan blue dye exclusion and counted. The cell suspension was diluted to the desired concentration. Three groups of mice were studied using a control 4-S-CAP and N-Ac-4-S-CAP as the active agents in the treatment. On day zero, the mice were inoculated via the lateral tail vein with 5 x 10⁴ cells in 0.2 ml of N saline. The test drugs were dissolved in normal saline, sterilized by membrane filtration, and administered in a dose of 300 mg/Kg (4-S-CAP) or 900 mg/Kg (N-Ac-4-S-CAP); starting on day five, the control solution or drug was injected i.p. daily for 14 days. On day 26, the mice were killed by cervical dislocation, their lungs were removed, and the number of melanoma colonies was counted under a dissecting microscope. The results were expressed as percentage reduction in the number of colonies: [a - b/a] x 100, where a = colonies in control group and b = colonies in experimental group.

A further data set deals with Mushroom tyrosinase (Agaricus bisporus, UniProt C7FF04). As to the kind of experiment: Enzyme kinetics with tyrosinase (substrate disappearance by HPLC, Lineweaver-Burk). The settings on record: result in words. Type of data set: biochemical. The protocol:
as §1

Where [3] appears, read: Route s.c., 300 mg/kg daily for 14 days.
[4] abbreviates: Route: i.p., 300 mg/kg daily for 14 days.
Setting [5] is: Route s.c., 300 mg/kg daily for 14 days, 300 mg/kg.
Setting [6] is: Route: i.p., 300 mg/kg daily for 14 days, 300 mg/kg.

Sequence of Mushroom tyrosinase (C7FF04 1-392): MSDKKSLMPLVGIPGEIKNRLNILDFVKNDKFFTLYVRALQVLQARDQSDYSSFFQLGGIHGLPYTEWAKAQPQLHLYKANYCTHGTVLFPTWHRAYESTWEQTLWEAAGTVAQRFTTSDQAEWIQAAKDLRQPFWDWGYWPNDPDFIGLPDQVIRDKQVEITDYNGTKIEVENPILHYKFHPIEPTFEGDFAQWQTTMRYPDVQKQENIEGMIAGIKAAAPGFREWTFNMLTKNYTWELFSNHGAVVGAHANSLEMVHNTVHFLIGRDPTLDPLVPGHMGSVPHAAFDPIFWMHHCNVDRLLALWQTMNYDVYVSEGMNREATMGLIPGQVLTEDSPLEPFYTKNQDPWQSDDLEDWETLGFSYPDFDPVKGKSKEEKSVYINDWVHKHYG

In the case of `NCCCSc1ccc(O)cc1` [4-S-HomoCAP, 4-S-homo-CAP], the values for the Depigmentation in the data set with follicular melanocytes (setting [3]) and in the data set with follicular melanocytes (setting [4]) were 63.5% and 12.1%, respectively. Further, the “PTCA Content” value with follicular melanocytes (setting [3]) is 397.7 ± 279.3 ng/mg; in the data set on follicular melanocytes (setting [4]), 956.7 ± 77.9 ng/mg.
In the case of `N[C@@H](CSc1ccc(O)cc1)C(=O)O` [4-S-CP, 4-S-cysteinylphenol], the lethal dose in data set [1] was 600 mg/kg.
On to `CC(N)CSc1ccc(O)cc1` (stereo not drawn) [α-Me-4-S-CAP, α-methyl-4-S-CAP], for which the “per single dose toxicity levels” value in data set [2] was ~500 mg/kg of body weight. The “electron microscopy of hair follicles: melanocytes and melanosomes” value in the data set with melanocytes is “contained immature melanosomes at stages II and III”. The side-effects result with follicular melanocytes (300 mg/kg daily for 14 days, i.p. or s.c., irritation seen after s.c. administration) is on record as “some irritation of the skin in the plucked area”. The “PTCA Content” value in the data set with follicular melanocytes (setting [3]) is given as 557.9 ± 47.2 ng/mg; in the data set with follicular melanocytes (setting [4]) it was 121.3 ± 81.9 ng/mg. The Depigmentation is 58% and 57.9% in the data set on follicular melanocytes (setting [5]); 89% and 88.9% in the data set with follicular melanocytes (setting [6]).
`CN(C)CCSc1ccc(O)cc1` [N,N-DiMe-4-S-CAP, N,N'-dimethyl-4-S-CAP]: in the data set on follicular melanocytes (setting [3]), the Depigmentation was 6.1% and the “PTCA Content” value amounted to 1023.4 ± 110.1 ng/mg. In the data set on follicular melanocytes (setting [4]), the Depigmentation amounted to 7.3% and the “PTCA Content” value was determined as 1009.0 ± 193.5 ng/mg. Moreover, the “visible pigmentation of new hair” value in the data set on follicular melanocytes (i.p. or s.c. route, result in words) is “no visible changes in pigmentation in new follicles”.
Consider `NCCSc1ccc(O)cc1` [4-S-CAP, 4-S-cysteaminylphenol, reference compound], for which the “substrate for plasma MAO” value at plasma MAO is “a substrate for both plasma MAO and tyrosinase”. Besides, the “light microscopy of hair follicles: functioning melanocytes and melanin pigments” value in the data set on melanocytes (i.p. daily, day 10 (late anagen phase)) was “the hair follicles contained functioning melanocytes and melanin pigments transferred into keratonocytes, although they were much sparser than in the controls”. Moreover, the “electron microscopy of hair follicles: melanocytes and melanosomes” value in the data set with melanocytes was “contained immature melanosomes at stages II and III”. Besides, the “%Gi” value is 54.0% with B16 melanoma (Experiment I) and 25.1% in the data set on B16 melanoma (Experiment II). In addition, the “Tumour Volume” value in the data set on B16 melanoma (Experiment I) is recorded as 239 ± 39 mm^3; in the data set on B16 melanoma (Experiment II), 405 ± 61 mm^3. Besides, the “PTCA Content” value came to 458.3 ± 107.6 ng/mg with follicular melanocytes (setting [3]) and 146.1 ± 72.4 ng/mg with follicular melanocytes (setting [4]). Further, the Depigmentation was 47% and 46.9% in the data set on follicular melanocytes (setting [5]); 87% and 86.6% with follicular melanocytes (setting [6]). Further, the “No. of Colonies % control” value in the data set on B16F10 melanoma is 30% and 32.4%. Besides, in the data set on B16F10 melanoma, the “No. of Colonies per pair of lungs” value was found to be 28.0 ± 14.5. The lethal dose in data set [1] was 400 mg/kg. In addition, the tyrosinase substrate entry at Mushroom tyrosinase was “a substrate for both plasma MAO and tyrosinase”.
